Data published in US9296716B2, “Androgen receptor ligands” (THE PROVOST, FELLOWS, FOUNDATION SCHOLARS, & THE OTHER …, priority 2011, dated 2016).
Where two headings read alike, the source gives them in different places.

Assays:
[1] = target: T1, AR-LBD wt (Homo sapiens, UniProt P10275); experiment: Lanthascreen TR-FRET AR coactivator (D11-FxxLF) assay, AR-LBD wt; type: biochemical; details: for IC50: TR-FRET, D11-FxxLF peptide, DHT = EC80
T1 sequence (P10275 669-900 limits assumed): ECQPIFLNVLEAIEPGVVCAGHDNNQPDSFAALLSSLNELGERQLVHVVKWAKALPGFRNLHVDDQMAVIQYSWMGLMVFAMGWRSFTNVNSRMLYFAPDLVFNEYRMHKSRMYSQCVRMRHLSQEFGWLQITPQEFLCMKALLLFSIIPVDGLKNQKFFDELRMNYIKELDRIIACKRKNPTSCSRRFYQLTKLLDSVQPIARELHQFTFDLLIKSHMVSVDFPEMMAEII

[2] = target: T2, Estrogen Receptor alpha (ER-α) LBD (Homo sapiens, UniProt P03372); experiment: TR-FRET PGC1-α coactivator recruitment assay, ERα LBD; type: biochemical; details: Estradiol = EC80
T2 sequence (P03372 311-547 limits assumed): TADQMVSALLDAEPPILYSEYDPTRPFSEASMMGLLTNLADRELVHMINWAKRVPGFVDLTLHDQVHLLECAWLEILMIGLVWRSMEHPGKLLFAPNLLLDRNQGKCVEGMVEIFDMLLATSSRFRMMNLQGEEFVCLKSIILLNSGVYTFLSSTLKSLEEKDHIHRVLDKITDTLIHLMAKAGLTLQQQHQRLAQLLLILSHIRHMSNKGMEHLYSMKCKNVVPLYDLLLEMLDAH
Method: Compound binding affinities for Progesterone Receptor (PR), Glucocorticoid Receptor (GR), Estrogen Receptor alpha and Estrogen Receptor beta were determined using TR-FRET (Table 2).
Selectivity of the diarylhydrazide scaffold for the AR was determined through a TR-FRET assay in ERα (FIGS. 8A & 9A1) and ERR (FIGS. 8B & 9A2). […] The non-LBP nature of this inhibition was confirmed by a FP assay (FIGS. 9C, 9B1 & 9B2).
Lanthascreen TR-FRET AR Coactivator Assay kit (Invitrogen, cat no. PV4381) was used to screen for potential coactivator disruptors.
TR FRET values were calculated at 10 flashes per well, using a delay time of 100 μs and integration time 200 μs as recommended by the Invitrogen assay guidelines. […] A serial dilution of compounds was firstly prepared in 100×DMSO (Sigma-Aldrich) starting from the maximum desired concentration to achieve a 12 point range concentration using 96-well polypropylene plates (Nalgene Nunc, Rochester, N.Y.). Each 100× solution was diluted to 2× concentration with TR-FRET co-regulator buffer A (Invitrogen proprietary buffer), yielding a final concentration of 1% DMSO in each well.
D11-FxxLF and Tb antibody were premixed in light protecting vials prior to use. A final concentration of DTT 5 mM was used in the assay buffer in order to prevent protein degradation. All plates (agonist and antagonist mode) were incubated between 2 and 4 hours at room temperature protected from light prior to TR-FRET measurement. […] Data was fitted using the sigmoidal dose response (variable slope) available from Graphpad Prism 5. Y=Bottom+(Top-Bottom)/(1+10^((Log IC50−X)*HillSlope))
The same procedure was used for AR T877A (Invitrogen cat no. PV4667), PR (Invitrogen cat no. PV4666), ER-α (Invitrogen cat no. PV4544), ER-β (Invitrogen cat no. PV4541) and GR (Invitrogen cat no. PV4683). The assay was adapted to exclude possible non-specific aggregation mechanism of inhibition by adding very low concentration of detergent Triton X-100 (0.001%) to the assay buffer following the Shoichet review guidelines [Shoichet BK (2006) Screening in a spirit haunted world. Drug Discov Today 11:607-615].

[3] = tested on: LNCaP cells; experiment: LNCaP cell proliferation assay (androgen deprived, AlamarBlue); type: cell-based; details: LNCaP
Method: To determine the optimal DHT concentration and length of treatment required for cell proliferation assays, we tested a range of DHT concentrations in 0.1% DMSO for 5 or 7 days in LNCaP cells cultured in FBS stripped phenol red free media. […] Media and treatments were replaced every second incubation day (FIGS. 12 A and B)
(§1) For cell viability (end point) assays LNCaP, PC-3 and PWR-1E cells were seeded at 2.5*10^4/ml density in 200 μl volume of a 96-well plate in triplicate and incubated for 24 hours prior testing. Test compounds were included at different concentrations to achieve a final concentration of 0.5% DMSO in each well. Effect of 0.5% DMSO on cell-viability was also evaluated. Cell viability was assessed after 24 hours of treatment using 10% Alamar Blue reagent (Invitrogen) for each well. Cell viability was monitored by the reduction of resazurin, a blue, cell-permeable and non-toxic compound, to resorufin, a red and highly fluorescent product. Viable cells continuously convert resazurin to resorufin, increasing the overall colour and fluorescence of the media surrounding cells. Fluorescence intensity can be quantitatively determined with a fluorescence microplate reader at excitation/emission 544 nm/590 nm (Spectramax Gemini). For hormone dependent cell proliferation assays in androgen deprived LNCaP cells, cells were seeded at 2*10^4 cells/ml in a 24-well plate in triplicate. Cells were plated in phenol red free RPMI Glutamax (Invitrogen) supplemented with 10% charcoal-stripped FBS to deplete endogenous steroids 48 hours prior the assay as described in previous reports. […] Cells were treated with different concentrations of test compounds with or without 0.1 nM DHT to achieve a final concentration of 0.1% DMSO in each well. A control for the vehicle was included to ensure no effect on viability could be detected. Media and treatments were replaced every second day, after washing the cells twice with 1×PBS. Supernatants were collected after five days for secreted PSA levels evaluation and cell proliferation was assessed for the same plate using Alamar Blue in order to exclude non-specific effects due to toxicity issues.

[4] = tested on: PSA expression in LNCaP cells; experiment: PSA ELISA, secreted PSA in LNCaP cells; type: cell-based
Method: To investigate compounds effect on PSA expression, a common biomarker for prostate cancer, we utilized a human PSA ELISA assay.
as §1
Secreted levels of prostate specific antigen were evaluated with a commercially available kit (Quantikine Human Kallikrein 3/PSA Immunoassay, R&D systems). The assay was performed following manufacturer's guidelines. In brief, 50 μl of standards and cell culture samples were added to pre-coated wells containing assay diluent RD1W (R&D systems) and incubated for two hours at room temperature. […] Wells were washed and treated with colored substrate (Tetramethylbenzidine) for an additional 30 minutes, after which 50 μl of stop solution (Sulphuric Acid 2N) was added per well and absorbance (450 nm with correction at 540 nm) was read with a plate reader within 30 minutes (Versamax).

COc1cc(/C=N/NC(=O)c2cc3c(ccc4ccccc43)o2)cc(OC)c1O [MDG506]
type of AR antagonism (full / partial) ([1]; TR-FRET in agonist and antagonist mode): full AR antagonists
IC50 ([1]; read-out: AR (wt)): 26.3 ± 3.8 µM
IC50 ([1]; read-out: Activity (AR wt TR-FRET)): 26.3 ± 3.8 µM
effect on ERα recruitment of fluorescent labelled PGC1-α ([2]; 100 μM to 45 nM): partially inhibit
IC50 ([2]; TR-FRET, ± SEM (n = 6), read-out: NR LBDs IC50 (μM) ER-α): > 100 µM
DHT dependent cell proliferation ([3]; DHT 0.1 nM, 5 days): clear dose dependent effect in reducing
CPA induced cell proliferation ([3]; MDG506 at 10 or 20 μM): reduces
cell proliferation in absence of DHT / androgens ([3]; androgen deprived media, no DHT): does not induce
PSA expression in absence of androgens [4]: does not induce
CPA stimulated PSA secretion / expression ([4]; MDG506 at 10 or 20 μM): significantly (P<0.001) reduces
DHT stimulated PSA expression ([4]; concentrations up to 20 μM): dose dependent inhibition
